The values below come from PMC4646067 (Biochemistry, 2015).

In assay [1] the target is T1, MelBEc (Escherichia coli, UniProt P02921). The assay can be described thus: isothermal titration calorimetry. The note with it: purified in 0.01% MNG-3, 20 mM Tris-HCl pH 7.5, 100 mM NaCl, 10% glycerol, 25 °C. Format: binding. For orientation: Isothermal titration calorimetry measures the heat released or taken up as one component is titrated into another.
Assay [2] addresses T2, MelBSt (Salmonella enterica, UniProt P30878). The assay can be described thus: isothermal titration calorimetry. In kind it is binding. The note with it: purified in 0.01% MNG-3, 20 mM Tris-HCl pH 7.5, 100 mM NaCl, 10% glycerol, 25 °C.
Assay [3] deals with MelBSt (Salmonella enterica, UniProt P30878, R295C). To be noted: RSO vesicles solubilized with MNG-3, 10 μM D^2G, 20 mM NaCl.
The target of assay [4] is T1, MelBEc. The assay can be described thus: Trp→D^2G FRET, displacement of bound D^2G. Format: binding. To be noted: read-out: RSO membrane vesicles, 10 μM D^2G, 20 mM NaCl, KPi pH 7.5.
In assay [5] the target is T2, MelBSt. The assay can be described thus: Trp→D^2G FRET, displacement of bound D^2G. The note with it: read-out: RSO membrane vesicles, 10 μM D^2G, 20 mM NaCl, KPi pH 7.5. Format: binding.
Assay [6] concerns the target WT melibiose permease of Escherichia coli (MelBEc) (Escherichia coli, UniProt P02921 1-473). The assay can be described thus: ITC.
The target in assay [7] is R141C mutant of the melibiose permease of Salmonella typhimurium (R141C MelBSt) (Salmonella typhimurium, UniProt P30878 1-476, R141C). The assay can be described thus: ITC.

T1 sequence (P02921 2-473): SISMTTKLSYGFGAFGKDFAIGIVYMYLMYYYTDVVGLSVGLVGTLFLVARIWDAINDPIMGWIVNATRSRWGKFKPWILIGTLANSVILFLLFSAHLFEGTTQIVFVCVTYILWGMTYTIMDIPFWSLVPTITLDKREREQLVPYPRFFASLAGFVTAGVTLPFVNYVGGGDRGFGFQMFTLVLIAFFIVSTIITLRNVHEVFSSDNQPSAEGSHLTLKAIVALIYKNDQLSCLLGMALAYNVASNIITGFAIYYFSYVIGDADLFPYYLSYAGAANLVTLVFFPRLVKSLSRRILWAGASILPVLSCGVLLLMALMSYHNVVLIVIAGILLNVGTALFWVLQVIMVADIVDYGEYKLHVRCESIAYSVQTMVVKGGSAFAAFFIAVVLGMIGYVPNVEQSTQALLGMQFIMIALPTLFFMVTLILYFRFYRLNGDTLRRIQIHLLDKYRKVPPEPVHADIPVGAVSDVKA

By Kd is commonly meant the constant that tells how readily two partners part at equilibrium. `OC[C@H]1O[C@H](OC[C@H]2OC(O)[C@H](O)[C@@H](O)[C@@H]2O)[C@H](O)[C@@H](O)[C@H]1O` (stereo partly shown) [melibiose]: the Kd in assay [1] stood at 1280 ± 60 µM; in assay [2], 2510 ± 130 µM. The IC50 in assay [3] was found to be 5490 ± 830 µM; in assay [4] it was 660 ± 160 µM; in assay [5], 2420 ± 220 µM.

B1: phosphotransferase protein IIA^Glc of E. coli (natural protein, UniProt P69783 1-169, looked up)
chain: MGLFDKLKSLVSDDKKDTGTIEIIAPLSGEIVNIEDVPDVVFAEKIVGDGIAIKPTGNKMVAPVDGTIGKIFETNHAFSIESDSGVELFVHFGIDTVELKGEGFKRIAEEGQRVKVGDTVIEFDLPLLEEKAKSTLTPVVISNMDEIKELIKLSGSVTVGETPVIRIKK
Turning to B1, the binding result in assay [6] is “binds”. The molecule also displayed an equilibrium dissociation constant (Kd) in assay [7] of 2 µM.
